Experimental data taken from paper PMC10780244, “Antileishmanial Effect of 1,5- and 1,8-Substituted Fused Naphthyridines” (Molecules, 2023).

What was measured:
[1] = test system: intramacrophagic iRFP-L. infantum amastigotes from murine spleens; test: Ex vivo intramacrophagic amastigote viability assay (iRFP fluorescence); assay type: cell-based, Leishmania infantum; details: for EC50: Leishmania infantum, ex vivo murine splenic explants, 72 h, read-out: Intracellular Amastigotes EC50; for SI: ratio CC50 (splenic macrophages) / EC50 (intramacrophagic amastigotes); for antileishmanial activity against Leishmania amastigotes (in words): summary in discussion
Method: (§1) The 1,5- and 1,8-fused naphthyridine derivatives were evaluated as antileishmanial agents in assays using two forms of L. infantum amastigotes: axenic amastigotes recovered from bone marrow cells of infected BALB/c mice and intramacrophagic amastigotes obtained from splenic explants of the same subjects. The L. infantum strain used is a genetically modified strain previously engineered by our group to constitutively express the infrared protein iRFP from Rhodopseudomonas palustris bacteriophytochrome (iRFP L. infantum). This strain allows monitoring the viability of both forms of the parasite by quantifying the fluorescence emitted at 700 nm by the iRFP protein produced by living amastigotes.
(§2) Amastigotes obtained from mouse bone marrow cells were used to perform a first screening with the complete series of fused 1,5- and 1,8-naphthyridines. […] The toxicity of these selected compounds was assessed in non-infected splenic cells and the cytotoxic concentration (CC50) value obtained was used to calculate the selective index (SI). The oral tolerability of these same compounds was tested by calculating the viability of murine intestinal organoids exposed to two concentrations (50 and 25 µM).
Intramacrophagic amastigotes were obtained by cutting spleens into small pieces that were incubated for 25 min with 0.5 mL of collagenase D (2 mg/mL) (Merck, Darmstadt, Germany) dissolved in 4.5 mL buffer (10 mM HEPES, pH 7.4, 150 mM NaCl, 5 mM KCl, 1 mM MgCl2 and 1.8 mM CaCl2). The cell suspension was filtered through a 100 µm cell strainer. After erythrocyte lysis (150 mM NH4Cl, 1 mM KHCO3, 0.1 mM EDTA), splenocytes were centrifuged three times at 500× g for 7 min at 4 °C, with PBS washes between each centrifugation. The splenocyte suspension containing intramacrophagic amastigotes was resuspended in RPMI medium (Gibco, Fisher Scientific, Waltham, MA, USA) supplemented with 20% FBS, 1 mM sodium pyruvate, 24 mM NaHCO3, 2 mM L-glutamine, 1× RPMI vitamins, 25 mM HEPES and antibiotic cocktail.
For the ex vivo intramacrophagic amastigote assay, 40 μL of one-half or one-third serial dilutions of each diluted in supplemented RPMI medium, were added to black 384-well optical-bottom black plates containing 40 μL of murine splenocytes obtained as described above. Positive controls (containing 10 μM of AMB) and negative controls (containing 0.1% v/v DMSO) were included. The plates were incubated at 37 °C and 5% CO2, for a maximum period of 72 h and the assays were performed by triplicate.
(§3) The viability of axenic and intramacrophage amastigotes was calculated measuring the fluorescence emitted at 700 nm by the iRFP protein from live parasites and recorded by an Odyssey infrared imaging system (Li-Cor, NE, USA). The fluorescence emitted by the negative control wells was considered 100% viability, whereas the fluorescence emitted by the positive control wells, was adjusted to 0% viability.
Fluorescence emitted by intramacrophage amastigotes were plotted against the drug concentration using the nonlinear fit analysis provided by the Sigma Plot 10.1 statistical package to obtain EC50 values.

[2] = test system: axenic iRFP-L. infantum amastigotes from bone marrow cells; test: Axenic amastigote viability assay (iRFP fluorescence, first screening); assay type: cell-based; details: Leishmania infantum, Bone marrow cell, cut-off 25 µM, 72 h, read-out: Axenic Amastigotes (concentration with inhibition)
Method: as §1, §2
To obtain iRFP-L. infantum axenic amastigotes, femur and tibia were carefully cut at both ends, and marrow cells were removed by passing PBS through the medullary cavity with a 29G needle. The bone marrow cell suspension was filtered through a 100 µm cell strainer and centrifuged at 3500× g for 10 min at room temperature. After centrifugation, cells were resuspended in amastigote culture medium: 15 mM KCl; 136 mM KH2PO4; 10 mM K2HPO4·3H2O; 0.5 mM MgSO4. 7H2O; 24 mM NaHCO3; 22 mM glucose; 1 mM glutamine, 1xRPMI 1640 vitamin mix (Sigma-Aldrich, Merck, Darmstadt, Germany), 10 mM folic acid, 100 mM adenosine, 1xRPMI amino acid mix (Sigma-Aldrich, Merck, Darmstadt, Germany), 5 mg/mL hemin, antibiotic cocktail, 25 mM MES and 10% FBS, and incubated at 37 °C.
To test the antileishmanial effect of naphthyridines on axenic amastigotes, 40 μL of a suspension containing 3 × 10^4 iRFP-L. infantum parasites per well were incubated with another 40 μL of the drugs dilutions in amastigote culture medium with 7.5% FBS. Incubations were performed in 384-well black microtiter plates with an optical bottom at 37 °C and 5% CO2 for 72 h. Solutions of 0.1% (v/v) DMSO and 10 μM AMB were used as negative and positive controls, respectively. The assays were performed by triplicate.
as §3

[3] = Cytotoxicity in uninfected murine splenic cells (alamarBlue); assay type: cell-based, mouse; details: mouse; uninfected splenic cells, 72 h, alamarBlue; read-out: Mouse Splenic Macrophages CC50
Method: Amastigotes obtained from mouse bone marrow cells were used to perform a first screening with the complete series of fused 1,5- and 1,8-naphthyridines. […] The toxicity of these selected compounds was assessed in non-infected splenic cells and the cytotoxic concentration (CC50) value obtained was used to calculate the selective index (SI). The oral tolerability of these same compounds was tested by calculating the viability of murine intestinal organoids exposed to two concentrations (50 and 25 µM). In order to assess the in vitro safety of the naphthyridines, cytotoxicity assays were carried out in ex vivo splenic explants from uninfected mice, which were prepared as previously described to obtain intramacrophagic amastigotes. Cells were seeded at a density of 1 × 10^6 cells per well in 96-well plates containing the prediluted compounds and incubated at 37 °C and 5% CO2 during 72 h. AlamarBlue assay (Invitrogen, Fisher Scientific, Waltham, MA, USA) was used to estimate cell viability following manufacturer’s recommendations. The assays were performed by triplicate. Absorbance of viable cells vs. compound concentrations were fitted by nonlinear analysis using the Sigma Plot 10.1 statistical package to calculate the cytotoxic concentration 50 (CC50) values. Selectivity index (SI) was calculated as the ratio between CC50 and the EC50 values of intramacrophagic amastigotes.

| Compound | EC50 [1] | SI [1] | minimal effective concentration [2] | CC50 at 72 h [3] | antileishmanial activity against Leishmania amastigotes (in words) [1] |
| --- | --- | --- | --- | --- | --- |
| O=C1Oc2ccccc2C2Nc3ccc(Br)nc3[C@@H](c3ccccc3)C12 (some centres unmarked) [Compound 6b] | 12.9 ± 0.82 µM | 4.3 | < 25 µM | 55.7 ± 6.42 µM | – |
| COc1ccc2nc3c(c(-c4ccccc4)c2n1)c(=O)oc1ccccc13 [Compound 7c] | 37 ± 2.87 µM | 2.6 | < 25 µM | 97.7 ± 1.77 µM | – |
| Cc1ccc(S(=O)(=O)N2CC3C(Nc4cccnc4[C@H]3c3ccccc3)c3ccccc32)cc1 (some centres unmarked) [Compound 8a] | 5.3 ± 0.71 µM | 8.5 | < 25 µM | 45 ± 3.91 µM | – |
| COc1ccc2c(n1)[C@@H](c1ccccc1)C1CN(S(=O)(=O)c3ccc(C)cc3)c3ccccc3C1N2 (some centres unmarked) [Compound 8c] | 4.93 ± 0.35 µM | – | < 25 µM | > 100 µM | – |
| Cc1ccc(S(=O)(=O)N2CC3C(Nc4ccc(Br)nc4[C@H]3c3ccccc3)c3ccccc32)cc1 (some centres unmarked) [Compound 8d] | 34.4 ± 9.7 µM | – | < 25 µM | > 50 µM | – |
| Fc1ccc2c(c1)C1Nc3ncccc3[C@@H](c3ccccc3)C1CO2 (some centres unmarked) [Compound 10b] | 7.57 ± 0.44 µM | 6.7 | < 25 µM | 50.7 ± 0.99 µM | – |
| c1ccc(-c2c3c(nc4ncccc24)-c2ccccc2OC3)cc1 [Compound 11a] | 7.7 ± 0.29 µM | – | < 25 µM | > 100 µM | – |
| O=c1oc2ccccc2c2nc3ncccc3c(-c3ccccc3)c12 [Compound 13a] | 10.6 ± 1.21 µM | 3.3 | < 25 µM | 34.6 ± 1.79 µM | significant antileishmanial activity |
| O=c1oc2ccccc2c2nc3ncc(Br)cc3c(-c3ccccc3)c12 [Compound 13b] | 7.53 ± 0.97 µM | >6.6 | < 25 µM | > 50 µM | – |
| Cc1ccc(S(=O)(=O)N2CC3C(Nc4ncccc4C3c3ccccc3)c3ccccc32)cc1 (centres unmarked) [Compound 14a] | 9.34 ± 0.77 µM | 2.9 | < 25 µM | 27.2 ± 1.55 µM | significant antileishmanial activity |
| Cc1ccc(S(=O)(=O)N2Cc3c(nc4ncc(Br)cc4c3-c3ccccc3)-c3ccccc32)cc1 [Compound 15b] | 6.16 ± 0.54 µM | 4.0 | < 25 µM | 24.6 ± 3.59 µM | significant antileishmanial activity |
